This is an account of results in US8222247B2, “Modulators of glucocorticoid receptor, AP-1, and/or NF-kappabeta activity and use thereof” (Bristol-Myers Squibb Company, priority 2006, dated 2012).

The test deals with AP-1 induced transcriptional activity. The test can be described thus: Cellular Transrepressional Assay (AP-1 luciferase reporter in A549 cell, PMA activated). The class given is cell-based. The note with it: pAP-1-Luc; for AP-1 Max % inh (Cellular Transrepression Assay) / Emax: maximum inhibition, PMA; for EC50: 10 ng/ml PMA, 7 hours, read-out: AP-1 EC50, nM (Cellular Transrepression Assay); for Emax: read-out: AP-1 Max % inh (Cellular Transrepression Assay). As for the experimental part:
Cellular Transrepressional Assay
To measure the ability of test molecules to inhibit AP-1 induced transcriptional activity we utilized an A549 cell which was stably transfected with a plasmid containing 7×AP-1 DNA binding sites (pAP-1-Luc plasmid, Stratagene Co. La Jolla, Calif.) followed by the gene for luciferase. Cells were activated with 10 ng/ml of phorbol myristic acid (PMA) plus or minus test molecules for 7 hours. After 7 hours a luciferase reagent was added to measure luciferase enzymatic activity in the cell. After a 10 minute incubation of luciferase reagent with cells, luminescence was measured in a TopCount luminescence counter. Repression of AP-1 activity was calculated as the percentage decrease in the signal induced by PMA alone. Test molecules were analyzed in the concentration range from 0.1 nM to 40 μM. EC50s were determined by using standard curve fitting methods such as Excel fit (Microsoft Co.). An EC50 is the test molecule concentration at which there is a 50% repression of the maximal inhibition of transcription, i.e. a 50% reduction of AP-1 activity.
A general note: Reporter assays use an easily measured gene product as a stand-in for the process of interest.

Read-outs that look alike come from different tables or passages of the source.

Consider `CC(C(=O)Nc1nncs1)C(c1ccccc1)c1ccc(-c2ccc(C(=O)N3CCOCC3)cc2)s1` (single isomer, unassigned) [Example 144, 2-methyl-3-(5-(4-(4-morpholinylcarbonyl)phenyl)-2-thienyl)-3-phenyl-N-1,3,4-thiadiazol-2-ylpropanamide], for which the “AP-1 Max % inh (Cellular Transrepression Assay)” value (shortened to “AP-1 Max % inh”) was determined as 49.49 % inh and the EC50 came to 5.98 nM.
In the same order, the values of `CC(C(=O)Nc1nncs1)C(c1ccccc1)c1ccc(-c2ccc(C(=O)N3CCOCC3)cc2)s1` (single isomer, unassigned) [Example 145, 2-methyl-3-(5-(4-(4-morpholinylcarbonyl)phenyl)-2-thienyl)-3-phenyl-N-1,3,4-thiadiazol-2-ylpropanamide] are 25.24 % inh and 64.6 nM.
Consider `CC(C(=O)Nc1nncs1)C(c1ccccc1)c1ccc(-c2ccc(C(=O)N(C)C)cc2)s1` (single isomer, unassigned) [Example 146, N,N-dimethyl-4-(5-(2-methyl-3-oxo-1-phenyl-3-(1,3,4-thiadiazol-2-ylamino)propyl)-2-thienyl)benzamide], for which the EC50 is 14.6 nM. Also, the Emax (Homo sapiens, A549, 7 h) is 59.1%.
On to `CC(C(=O)Nc1nncs1)C(c1ccccc1)c1ccc(-c2ccc(C(=O)N(C)C)cc2)s1` (single isomer, unassigned) [Example 147, N,N-dimethyl-4-(5-(2-methyl-3-oxo-1-phenyl-3-(1,3,4-thiadiazol-2-ylamino)propyl)-2-thienyl)benzamide], for which the “AP-1 Max % inh” value was found to be 48.44 % inh and the EC50 is 168 nM.
Turning to `CC(C(=O)Nc1nncs1)C(c1ccccc1)c1ccc(-c2ccc(C(=O)N(C)C)c(Cl)c2)s1` (single isomer, unassigned) [Example 148, 2-chloro-N,N-dimethyl-4-(5-(2-methyl-3-oxo-1-phenyl-3-(1,3,4-thiadiazol-2-ylamino)propyl)-2-thienyl)benzamide], the EC50 came to 24.6 nM. Moreover, the Emax (Homo sapiens, A549, 7 h) was 51.5%.
For `CC(C(=O)Nc1nncs1)C(c1ccccc1)c1ccc(-c2ccc(C(=O)N(C)C)c(Cl)c2)s1` (single isomer, unassigned) [Example 149, 2-chloro-N,N-dimethyl-4-(5-(2-methyl-3-oxo-1-phenyl-3-(1,3,4-thiadiazol-2-ylamino)propyl)-2-thienyl)benzamide], the “AP-1 Max % inh” value came to 54.20 % inh and the EC50 turned out to be 216 nM.
As for `CCN(C)C(=O)c1ccc(-c2ccc(C(c3ccccc3)C(C)C(=O)Nc3nncs3)s2)cc1` (single isomer, unassigned) [Example 150, N-ethyl-N-methyl-4-(5-(2-methyl-3-oxo-1-phenyl-3-(1,3,4-thiadiazol-2-ylamino)propyl)-2-thienyl)benzamide], the EC50 is 17.5 nM. Besides, the Emax (Homo sapiens, A549, 7 h) turned out to be 57.2%.
Regarding `CCN(C)C(=O)c1ccc(-c2ccc(C(c3ccccc3)C(C)C(=O)Nc3nncs3)s2)cc1` (single isomer, unassigned) [Example 151, N-ethyl-N-methyl-4-(5-(2-methyl-3-oxo-1-phenyl-3-(1,3,4-thiadiazol-2-ylamino)propyl)-2-thienyl)benzamide], the “AP-1 Max % inh” value is 48.08 % inh and the EC50 came to 203 nM.
As for `CC(C)(C(=O)Nc1nc(Cc2ccc(-c3ccncc3)cc2)cs1)C(c1ccccc1)c1ccncc1` (stereo not shown) [Example 5, 2,2-dimethyl-3-phenyl-3-(4-pyridinyl)-N-(4-(4-(4-pyridinyl)benzyl)-1,3-thiazol-2-yl)propanamide], under “Homo sapiens, A549, 7 h”, the Emax turned out to be 89.9% and the EC50 was determined as 18.7 nM.
On the same counts, the results for `CC(C)(C(=O)Nc1nccs1)C(c1cccc(F)c1)c1ccc(N2CCOCC2)s1` (stereo not shown) [Example 10, 3-(3-fluorophenyl)-2,2-dimethyl-3-(5-(4-morpholinyl)-2-thienyl)-N-1,3-thiazol-2-ylpropanamide] are 40% and 700 nM.
Turning to `CC(C)(C(=O)Nc1nncs1)C(c1ccccc1)c1ccc(N2CCOCC2)nc1` (stereo not shown) [Example 13, 2,2-dimethyl-3-(6-(4-morpholinyl)-3-pyridinyl)-3-phenyl-N-1,3,4-thiadiazol-2-ylpropanamide], under “Homo sapiens, A549, 7 h”, the Emax amounted to 42.2% and the EC50 is 245 nM.
Turning to `CC(C)(C(=O)Nc1nccs1)C(c1ccccc1)c1ccc(N2CCOCC2)nc1` (stereo not shown) [Example 14, 2,2-dimethyl-3-(6-(4-morpholinyl)-3-pyridinyl)-3-phenyl-N-1,3-thiazol-2-ylpropanamide], for the setting “Homo sapiens, A549, 7 h”, the Emax turned out to be 46% and the EC50 worked out at 62.9 nM.
In the same order, the values of `COc1ccc(-c2ccc(C(c3ccccc3)C(C)(C)C(=O)Nc3nccs3)cn2)cc1` (stereo not shown) [Example 26, 3-(6-(4-methoxyphenyl)-3-pyridinyl)-2,2-dimethyl-3-phenyl-N-1,3-thiazol-2-ylpropanamide] are 41.4% and 316 nM.
On to `CCCc1ccc(-c2ccc(C(c3ccccc3)C(C)(C)C(=O)Nc3nncs3)cn2)cc1` (stereo not shown) [Example 30, 2,2-dimethyl-3-phenyl-3-(6-(4-propylphenyl)-3-pyridinyl)-N-1,3,4-thiadiazol-2-ylpropanamide], for which, where the note is “Homo sapiens, A549, 7 h”, the Emax is 39.4% and the EC50 was 49 nM.
In the same order, the values of `CC(C)Cc1ccc(-c2ccc(C(c3ccccc3)C(C)(C)C(=O)Nc3nncs3)cn2)cc1` (stereo not shown) [Example 31, 3-(6-(4-isobutylphenyl)-3-pyridinyl)-2,2-dimethyl-3-phenyl-N-1,3,4-thiadiazol-2-ylpropanamide] are 46.8% and 21.5 nM.
Turning to `CN(C)C(=O)c1ccc(-c2ccc(C(c3ccccc3)C(C)(C)C(=O)Nc3nncs3)cn2)cc1` (stereo not shown) [Example 32, 4-(5-(2,2-dimethyl-3-oxo-1-phenyl-3-(1,3,4-thiadiazol-2-ylamino)propyl)-2-pyridinyl)-N,N-dimethylbenzamide], where the note is “Homo sapiens, A549, 7 h”, the Emax stood at 43.1% and the EC50 came out at 73.9 nM.
In the same order, the values of `CC(C)Oc1ccc(-c2ccc(C(c3ccccc3)C(C)(C)C(=O)Nc3nncs3)cn2)cc1` (stereo not shown) [Example 33, 3-(6-(4-isopropoxyphenyl)-3-pyridinyl)-2,2-dimethyl-3-phenyl-N-1,3,4-thiadiazol-2-ylpropanamide] are 37.7% and 24 nM.
On the same counts, the results for `CC(C)Oc1ccc(-c2ccc(C(c3cccc(F)c3)C(C)(C)C(=O)Nc3nncs3)s2)cc1` (stereo not shown) [Example 38, 3-(3-fluorophenyl)-3-(5-(4-isopropoxyphenyl)-2-thienyl)-2,2-dimethyl-N-1,3,4-thiadiazol-2-ylpropanamide] are 23.1% and 8.43 nM.
In the case of `CC(C)Cc1ccc(-c2ccc(C(c3cccc(F)c3)C(C)(C)C(=O)Nc3nncs3)s2)cc1` (stereo not shown) [Example 39, 3-(3-fluorophenyl)-3-(5-(4-isobutylphenyl)-2-thienyl)-2,2-dimethyl-N-1,3,4-thiadiazol-2-ylpropanamide], for the setting “Homo sapiens, A549, 7 h”, the Emax came out at 44.2% and the EC50 is 18.8 nM.
With `CCCc1ccc(-c2ccc(C(c3cccc(F)c3)C(C)(C)C(=O)Nc3nncs3)s2)cc1` (stereo not shown) [Example 40, -(3-fluorophenyl)-2,2-dimethyl-3-(5-(4-propylphenyl)-2-thienyl)-N-1,3,4-thiadiazol-2-ylpropanamide], the “AP-1 Max % inh” value came out at 37.26 % inh and the EC50 turned out to be 5.36 nM.

For orientation: EC50 means the concentration at which the effect is half-maximal.
